Experimental data from patent US10988741B2, “Mutated genes for the catalytic protein of Oplophorus luciferase and use thereof” (JNC CORPORATION, priority 2014, dated 2021).

Key:
[1] = Luminescence activity of ZZ-fused nanoKAZ mutants expressed in E. coli (soluble fraction); type: biochemical; conditions: nanoKAZ with CTZ = 1.0
Description: The E. coli BL21 strain (manufactured by Novagen) was used as a host cell. The strain was cultured in 10 mL of Luria-Bertani medium containing ampicillin (50 μg/mL) at 37° C. for 18 hours. The seed culture was inoculated to 10 mL of LB medium and incubated for 3 hours, followed by cooling in an ice-water bath for 1 hour. IPTG was added to the culture medium at a final concentration of 0.2 mM, followed by incubation at 15° C. for further 20 hours. The E. coli cells were collected from 1 mL of the culture medium by centrifugation. The collected E. coli cells were suspended in 0.5 mL of 50 mM Tris-HCl (pH 7.6) containing 10 mM EDTA (manufactured by Wako Pure Chemical Industries, Ltd.). The cells were disrupted by sonication for 5 seconds using a Branson Model 250 Sonifire. The cells were subjected to high-speed centrifugation to recover 0.5 mL of the supernatant as a soluble fraction containing the ZZ-fused nanoKAZ mutant. This soluble fraction, 5 μL, was subjected to SDS-PAGE electrophoresis to confirm expression of the proteins. In FIG. 2, numerals 1 to 5 represent as follows: 1: molecular weight size markers; 2: nanoKAZ, 3: nanoKAZ-AQQL, 4: nanoKAZ-KVA, 5: nanoKAZ-FLM. The results in FIG. 2 reveal that each mutated nanoKAZ protein was expressed in E. coli as soluble proteins at the same expression level as in nanoKAZ.
After 5 μL of the soluble fraction solution obtained in EXAMPLE 3 was added to 100 μL of 50 mM Tris-HCl (pH 7.6)-10 mM EDTA containing 1 μg of coelenterazine (manufactured by JNC Corp.) or its analogue, a luminescence reaction was started. Luminescence activity was measured for 60 seconds using a luminometer (manufactured by Atto Inc.: AB2200). The relative maximum intensity of luminescence (Imax) and the integrated values for 60 seconds within parentheses in terms of relative intensity of luminescence are shown in TABLE 2.
The coelenterazine analogues used for substrate specificity studies were synthesized by the methods described in publications, respectively. Specifically, bis-coelenterazine was synthesized by the method described in Nakamura et al. (1997) Tetrahedron Lett. 38: 6405-6406, furimazine by the method described in Hall et al. (2012) ACS Chem. Biol. […], h-coelenterazine by the method described in Inouye et al (2010) Anal. Biochem. 407:247-252 and 6h-coelenterazine and 6h-f-coelenterazine by the method described in Inouye et al (2013) Biochem. Biophys. Res. Commun. 437: 23-28. f-coelenterazine was purchased from Prolume Ltd. Luminescence activity of the ZZ-fused nanoKAZ mutants was measured by the method described in EXAMPLE 4.

[2] = Luminescence activity of nanoKAZ mutants secreted into culture medium from CHO-K1 cells using secretory signal peptide sequence; type: biochemical; conditions: substrate furimazine, with secretory signal peptide, nanoKAZ with CTZ = 1.0
Description: Chinese hamster ovary cell line CHO-K1 was cultured in Ham's F-12 medium (manufactured by Wako Pure Chemical Industries, Ltd.) supplemented with 10% (v/v) fetal bovine serum (manufactured by Biowest Inc.). The CHO-K1 cells were seeded in a 6-well plate in 2×10^5 cells/well/2 mL medium (n=2) and cultured in an incubator at 37° C. in 5% (v/v) CO2. After 24 hours, the purified recombinant plasmid was transfected to CHO-K1 cells using a FuGene HD transfection kit (manufactured by Promega Corp.) and the cells were provided for subsequent experiment. Specifically, 1 μg of the recombinant plasmid, 0.1 μg of the internal standard vector pGL4.13 [Luc2/sv40] and 3.3 μL of FuGene HD were added to 100 μL of the medium and allowed to stand at room temperature for 15 minutes. […]
Luminescence activity was measured for 60 seconds using a luminometer (manufactured by Atto Inc.: AB2200); the maximum intensity of luminescence (Imax) and the integrated values for 60 seconds within parentheses in terms of relative intensity of luminescence are shown in TABLE 3.
(§1) Luminescence activity of the nanoKAZ mutants secreted into the culture medium from animal cultured cells using the secretory signal peptide sequence was measured by the method described in EXAMPLE 9. […] The nanoKAZ-AQQL mutant is secretable protein and can use coelenterazine as the most efficient substrate for the luminescence reaction.

[3] = Luminescence activity of nanoKAZ mutants in culture medium of CHO-K1 cells without secretory signal peptide sequence; type: biochemical; conditions: substrate coelenterazine (CTZ), nanoKAZ = 1.0
Description: Chinese hamster ovary cell line CHO-K1 was cultured in Ham's F-12 medium (manufactured by Wako Pure Chemical Industries, Ltd.) supplemented with 10% (v/v) fetal bovine serum (manufactured by Biowest Inc.). The CHO-K1 cells were seeded in a 6-well plate in 2×10^5 cells/well/2 mL medium (n=2) and cultured in an incubator at 37° C. in 5% (v/v) CO2. After 24 hours, the purified recombinant plasmid was transfected to CHO-K1 cells using a FuGene HD transfection kit (manufactured by Promega Corp.) and the cells were provided for subsequent experiment. […]
(§2) The crude enzyme solution, 5 μl, obtained in EXAMPLE 8 was added to 100 μl of 30 mM Tris-HCl (pH 7.6)-10 mM EDTA (Wako Pure Chemical Industries, Ltd.) containing 1 μg of coelenterazine (manufactured by JNC Corp.), and the luminescence reaction was started. Luminescence activity was measured for 60 seconds using a luminometer (manufactured by Atto Inc.: AB2200); the maximum intensity of luminescence (Imax) and the integrated values for 60 seconds within parentheses in terms of relative intensity of luminescence are shown in TABLE 3.
Luminescence activity of the nanoKAZ mutants in culture medium, which were secreted from animal culture cells without using a secretory signal peptide sequence, was measured by the method described in EXAMPLE 9. […]

[4] = Luminescence activity of nanoKAZ mutants secreted into culture medium from CHO-K1 cells using secretory signal peptide sequence; type: biochemical; conditions: nanoKAZ with CTZ = 1.0
Description: Chinese hamster ovary cell line CHO-K1 was cultured in Ham's F-12 medium (manufactured by Wako Pure Chemical Industries, Ltd.) supplemented with 10% (v/v) fetal bovine serum (manufactured by Biowest Inc.). The CHO-K1 cells were seeded in a 6-well plate in 2×10^5 cells/well/2 mL medium (n=2) and cultured in an incubator at 37° C. in 5% (v/v) CO2. After 24 hours, the purified recombinant plasmid was transfected to CHO-K1 cells using a FuGene HD transfection kit (manufactured by Promega Corp.) and the cells were provided for subsequent experiment. Specifically, 1 μg of the recombinant plasmid, 0.1 μg of the internal standard vector pGL4.13 [Luc2/sv40] and 3.3 μL of FuGene HD were added to 100 μL of the medium and allowed to stand at room temperature for 15 minutes. Subsequently, 100 μL of the DNA-FuGene complex solution was added to the cells in the 6-well plate. After incubation for 46 hours, the culture medium was collected.
as §2, §1

[5] = reported in the literature (Patent Document 2, Non-Patent Documents 5 and 6); cited from earlier work
[6] = substrate 6h-coelenterazine, with secretory signal peptide
[7] = substrate 6h-f-coelenterazine, with secretory signal peptide
[8] = substrate bis-coelenterazine, with secretory signal peptide
[9] = substrate coelenterazine (CTZ), with Gaussia luciferase secretory signal peptide
[10] = substrate f-coelenterazine, with secretory signal peptide
[11] = substrate h-coelenterazine, with secretory signal peptide

In the case of “nanoKAZ: known mutated 19 kDa catalytic protein of Oplophorus luciferase with 16 amino acid mutations; amino acid sequence SEQ ID NO: 2”, the “Relative maximum intensity of luminescence Imax” value (shortened to “Relative maximum intensity”) ([1]; substrate 6h-coelenterazine) is reported as 0.6, the “integrated values of relative intensity of luminescence for 1 min” value ([1]; substrate 6h-coelenterazine) is reported as “(0.4)” and the “Relative maximum intensity” value ([1]; substrate 6h-f-coelenterazine) is reported as 7.9. The “integrated values of relative intensity of luminescence for 1 min” value ([1]; substrate 6h-f-coelenterazine) was “(4.6)”, the “Relative maximum intensity” value ([1]; substrate bis-coelenterazine) was 9.0 and the “integrated values of relative intensity of luminescence for 1 min” value ([1]; substrate bis-coelenterazine) was “(6.3)”. The “Relative maximum intensity” value ([1]; substrate coelenterazine (CTZ)) was 1.0, the “integrated values of relative intensity of luminescence for 1 min” value ([1]; substrate coelenterazine (CTZ)) was “(1.0)” and the “Relative maximum intensity” value ([1]; substrate f-coelenterazine) was 20.2. The “integrated values of relative intensity of luminescence for 1 min” value ([1]; substrate f-coelenterazine) was “(10.0)”, the “Relative maximum intensity” value ([1]; substrate furimazine) was 4.8 and the “integrated values of relative intensity of luminescence for 1 min” value ([1]; substrate furimazine) was “(3.7)”. For the same substance, the “Relative maximum intensity” value ([1]; substrate h-coelenterazine) was 14.2, the “integrated values of relative intensity of luminescence for 1 min” value ([1]; substrate h-coelenterazine) was “(7.4)” and the “Relative maximum intensity” value [2] was 5.9. For the same substance, the “integrated values of relative intensity of luminescence for 1 min” value [2] was “(6.2)”, the “Relative maximum intensity” value [3] was 1.0 (1.0) and the “integrated values of relative intensity of luminescence for 1 min” value [3] was 1.0 (1.0). For the same substance, the “Relative maximum intensity” value [4, 6] was 0.8, the “integrated values of relative intensity of luminescence for 1 min” value [4, 6] was “(0.7)” and the “Relative maximum intensity” value [4, 7] was 11.7. For the same substance, the “integrated values of relative intensity of luminescence for 1 min” value [4, 7] was “(11.8)”, the “Relative maximum intensity” value [4, 8] was 11.1 and the “integrated values of relative intensity of luminescence for 1 min” value [4, 8] was “(11.1)”. The “Relative maximum intensity” value [4, 9] was 1.0, the “integrated values of relative intensity of luminescence for 1 min” value [4, 9] was “(1.0)” and the “Relative maximum intensity” value [4, 10] was 21.6. The “integrated values of relative intensity of luminescence for 1 min” value [4, 10] was “(12.2)”, the “Relative maximum intensity” value [4, 11] was 16.4 and the “integrated values of relative intensity of luminescence for 1 min” value [4, 11] was “(9.9)”. The “luminescence activity, fold higher than that of native 19 kDa protein” value [5] was “approximately 10 fold”.
